# Assay results reported in patent publication US11291719B2, “Methods and compositions for modulating Akt3” (Augusta University Research Institute, Inc., priority 2016, dated 2022).
# Assays:
# Akt3 = target: T1, Akt3 (Mus musculus, UniProt Q9WUA6); assay: Immunoblot of pAkt3 in activated nTregs; format: cell-based; conditions: 72 hrs
# T1 construct: nTreg cell lysates prepared on day 3 (72 hrs) of treatment were separated by SDS-PAGE and immunoblotted; endogenous in cells; host or cells: primary mouse nTregs (C57BL/6J foxp3-GFP)
# T1 sequence (Q9WUA6 whole entry): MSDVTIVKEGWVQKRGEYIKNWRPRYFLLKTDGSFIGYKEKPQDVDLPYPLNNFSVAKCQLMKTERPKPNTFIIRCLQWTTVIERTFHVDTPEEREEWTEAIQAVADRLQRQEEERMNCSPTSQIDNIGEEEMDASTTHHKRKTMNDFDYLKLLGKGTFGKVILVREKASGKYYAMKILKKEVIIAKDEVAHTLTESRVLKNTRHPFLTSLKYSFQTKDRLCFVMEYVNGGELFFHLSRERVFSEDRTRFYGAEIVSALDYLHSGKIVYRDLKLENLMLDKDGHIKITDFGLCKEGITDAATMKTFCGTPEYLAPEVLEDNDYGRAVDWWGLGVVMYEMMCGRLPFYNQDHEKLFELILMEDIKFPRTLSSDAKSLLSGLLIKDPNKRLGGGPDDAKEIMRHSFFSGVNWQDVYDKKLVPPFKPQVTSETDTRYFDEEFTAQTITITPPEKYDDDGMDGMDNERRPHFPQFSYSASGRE
# Method: (§1) FACS-sorted natural regulatory T cells (nTregs), from WT C57BL/6J (foxp3-GFP) mice were plated on anti-CD3-coated plates and cultured in activation media (IL2 and anti-CD28) without inhibitors (Stimulated) and with different concentrations of inhibitor 4-[(6-nitroquinolin-4-yl)amino]-N-[4-(pyridin-4-ylamino)phenyl]benzamide (also referred to as JJ64-E) for 72 hrs. For negative control (Non-stimulated-NS) cells were left in media containing IL-2 for 72 hrs. nTreg cell lysates prepared on day 3 (72 hrs) of treatment were separated by SDS-PAGE and immunoblotted with specific antibodies (pAkt1) or pAkt3; actin was used as loading control.
# Akt1 = target: T2, Akt1 (Mus musculus, UniProt P31750); assay: Immunoblot of pAkt1 in activated nTregs; format: cell-based; conditions: 72 hrs
# T2 construct: endogenous in cells; host or cells: primary mouse nTregs (C57BL/6J foxp3-GFP)
# T2 sequence (P31750 whole entry): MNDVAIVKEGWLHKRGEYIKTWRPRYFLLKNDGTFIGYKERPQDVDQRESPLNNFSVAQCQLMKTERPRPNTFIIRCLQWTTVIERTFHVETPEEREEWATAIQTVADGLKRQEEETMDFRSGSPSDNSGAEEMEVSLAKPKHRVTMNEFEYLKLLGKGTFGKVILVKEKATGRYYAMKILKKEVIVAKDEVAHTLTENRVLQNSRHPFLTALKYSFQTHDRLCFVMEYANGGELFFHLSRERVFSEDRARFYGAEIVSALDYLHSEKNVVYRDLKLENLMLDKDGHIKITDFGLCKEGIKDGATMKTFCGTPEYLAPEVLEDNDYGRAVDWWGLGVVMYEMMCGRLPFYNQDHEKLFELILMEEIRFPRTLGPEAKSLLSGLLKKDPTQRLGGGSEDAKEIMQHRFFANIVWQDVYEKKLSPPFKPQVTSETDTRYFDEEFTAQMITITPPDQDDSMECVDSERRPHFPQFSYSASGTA
# Method: as §1
# nTregs = assay: Proliferation (VCT, flow cytometry) of activated nTregs; format: cell-based, mouse; conditions: 72 hrs, anti-CD3, IL2 and anti-CD28
# Method: (§2) FACS-sorted nTregs, CD4+ and CD8+ T cells from C57BL/6J(foxp3-GFP) were plated on anti-CD3-coated plates and cultured in activation media (IL2 and anti-CD28) without inhibitors (Stimulated) and with inhibitors (JJ64-E) for 72 hrs. For negative control (Non-stimulated-NS) cells were left in media containing IL-2 for 72 hrs. After 72 hrs Proliferation (level of VCT) in live gated cells was measured by flow cytometry.
# CD4+ and CD8+ T cells = assay: Proliferation (VCT, flow cytometry) of activated CD4+ and CD8+ T cells; format: cell-based, mouse; conditions: 72 hrs, anti-CD3, IL2 and anti-CD28
# Method: as §2
# Tregs (CD4+Foxp3+) = assay: TC-1 tumor model: percentage of Tregs by flow cytometry; format: in vivo, mouse; conditions: 5 mg/kg or 10 mg/kg i.p. every day from day 10, analysed day 15
# Method: (§3) WT C57BL/6J mice (n=3/group) were injected s.c. in the right flank with 7×10^4 TC-1 cells. Mice from appropriate groups were treated with either 5 mg/kg or 10 mg/kg of JJ64-E injected (i.p.) every day starting on day 10 after tumor implantation throughout the experiment. All groups were euthanized on day 15 of TC-1 implantation. The percentage of Tregs (CD4+Foxp3+) was analyzed by flow cytometry.
# (§4) Statistical significance was determined by one-way ANOVA with Tukey's multiple comparison test (*, p<0.05; **, p<0.01; ***, p<0.001).
# [1] = tested on: CD8 and other (FoxP3neg) CD4 T cells; assay: TC-1 tumor model: percentage of CD4 and CD8 T cells by flow cytometry; format: in vivo, mouse; conditions: 5 mg/kg or 10 mg/kg i.p. every day from day 10, analysed day 15
# Method: as §3, with “C57BL/6 4-6 weeks old female” for “C57BL/6J”, “(n=5/group)” for “(n=3/group)”, “everyday” for “every day”, “CD4 and CD8 were” for “Tregs (CD4+Foxp3+) was”, “analyzed in splenic CD4+ cells” for “analyzed”
# TC-1 tumor = TC-1 tumor growth and survival, alone or with vaccine; format: in vivo, mouse; conditions: high dose as monotherapy, lower dose combined with vaccine
# Method: (§5) C57BL/6 mice (n=5/group) were injected s.c. in the right flank with 7×10^4 TC-1 cells. Mice from appropriate groups were injected weekly with vaccine (s.c.) or DMSO 5% as a control. Mice were also treated with vaccine (weekly) along with either 10 mg/kg or 20 mg/kg of JJ64-E injected (i.p.) every day starting on day 6 after tumor implantation throughout the experiment.
# FIGS. 5B and 5C are bar diagrams showing average tumor volumes of mice for each group. FIG. 5D is a Kaplan-Meier plot of the overall survival. Statistical significance was determined by Log-rank (Mantel-Cox) test.
# as §4
# as §5, with “JJ64-C(or FIG. 7A or Formula 18)” for “JJ64-E”, “every other” for “every”
# FIGS. 7C and 7D are bar diagrams representing average tumor volumes of mice for each group. FIG. 7E is a Kaplan-Meier plot of the overall survival. Statistical significance was determined by Log-rank (Mantel-Cox) test.
# [2] = tested on: iTreg induction (CD4+FoxP3+ cells); assay: iTreg induction from CD4+FoxP3- cells with TGF-β (flow cytometry); format: cell-based; conditions: 72 hrs, frequency of CD4+FoxP3+ cells
# Method: (§6) FACS-sorted CD4+FoxP3− cells were plated on anti-CD3-coated plates with soluble IL2 and ant-CD28 with TGF-β (induction) Cell were induced for iTregs with JJ64-B (FIG. 6A) without inhibitor (Induction-IND)) or for 72 hrs. Cells were harvested and the frequency of CD4+FoxP3+ cells was measured by flow cytometry.
# as §6, with “JJ64-C (JJ64 modified drug C or Formula 18) or” for “JJ64-B (FIG. 6A)”
# as §6, with “JJ64-D (JJ64 modified drug D or FIG. 9A) or” for “JJ64-B (FIG. 6A)”
# [3] = JJ64-E i.p. every day from day 6
# [4] = JJ64-C i.p. every other day from day 6
Compound,Akt3 phosphorylation in Tregs (Akt3),Akt1 phosphorylation in Tregs (Akt1),Treg proliferation (nTregs),proliferation of CD8 and other CD4 T cells (CD4+ and CD8+ T cells),Tregs in vivo in TC-1 tumor model (Tregs (CD4+Foxp3+)),CD8 and other (FoxP3neg) CD4 T cells in TC-1 tumor model [1],TC-1 tumor growth (TC-1 tumor; [3]),survival of TC-1 tumor mice (TC-1 tumor; [3]),TC-1 tumor growth (TC-1 tumor; [4]),survival of TC-1 tumor mice (TC-1 tumor; [4]),iTreg induction [2]
"O=C(Nc1ccc(Nc2ccncc2)cc1)c1ccc(Nc2ccnc3ccc([N+](=O)[O-])cc23)cc1 [Compound 1, 4-[(6-nitroquinolin-4-yl)amino]-N-[4-(pyridin-4-ylamino)phenyl]benzamide]",inhibits,not,selectively inhibits,sparing,decreases,does not affect,inhibits,prolongs,,,
O=C(Nc1cccc(Nc2ccncc2)c1)c1cccc(Nc2ccnc3ccc(F)cc23)c1 [Compound 18],,,,,,,,,inhibits,prolongs,inhibits
